According to patent US6482805B2 (Parker Hughes Institute, priority 1998, dated 2002):
Like-named read-outs stand apart in the source and are kept apart here.

Assays:
[1] = test system: normal human endocervical epithelial cells; test: cells; type: cell-based; details: 24 h, read-out: Endocervical cells IC50
Method: (§1) The potential cytotoxicity of aryl phosphate derivatives of bromo-methoxy ZDV in comparison to N-9, against normal human ectocervical and endocervical epithelial cells (Clonetics Corporation, San Diego, Calif.), was measured using MTT (3-[4,5-dimethylthiazol-2-yl]-2,5-diphenyl tetrazolium bromide) cell viability assays (Boehringer Mannheim Corp., Indianapolis, Ind.) [see, D'Cruz O J, et al., Mol Hum Reprod 1999; 5:421-432; D'Cruz O J, et al., Contraception 1999; 59 (in press); and Uckun F M, et al., Antimicrob Agents Chemther 1998; 42:383-388]. Briefly, exponentially growing ectocervical and endocervical epithelial cells were seeded into 96-well plate at a density of 2×10^5 cells/well and incubated for 24 h at 37° C. prior to drug exposure. On the day of treatment, culture medium was carefully aspirated from the wells and replaced with fresh medium containing drug concentrations ranging from 3.9 μM to 1000 μm. Triplicate wells were used for each treatment. The cells were incubated with the various compounds for 24 hours at 37° C. in a humidified 5% CO2 atmosphere. To each well, 10 μl of MTT (0.5 mg/ml final concentration) was added and the plates were incubated at 37° C. for 4 hours to allow MTT to form formazan crystals by reacting with metabolically active cells. The formazan crystals were solubilized overnight at 37° C. in a solution containing 10% SDS in 0.01 M HCl. The absorbance of each well was measured in a microtiter reader at 540 nm and a reference wavelength of 690 nm. To translate the OD540 values into the number of live cells in each well, the OD540 values were compared to those of standard OD540 versus cell number curves generated for each cell line. The percent cell survival was calculated using the formula: % survival=live cell number[test]/live cell number[control]×100. The results were expressed as IC50 values. The IC50 was defined as the concentration required for 50% reduction in cell survival. Two separate experiments were performed in triplicate to assess the potential cytotoxicity of spermicidal WHI-07 analogues against ectocervical and endocervical epithelial cells.

[2] = test system: normal human ectocervical epithelial cells; test: cells; type: cell-based; details: 24 h, read-out: Ectocervical cells IC50
Method: as §1

[3] = test system: human sperm in donor semen; test: Sperm immobilizing activity in diluted semen / seminal plasma (Example 3); type: cell-based; details: 200 μM, 3 hours, CASA
Method: Following 3 hours of incubation, duplicate aliquots (4-μl) were used for CASA.

human sperm = test: Time course of sperm immobilizing activity by CASA (Example 2); type: cell-based; details: 100 μM
Method: At timed intervals, duplicate aliquots (4-μl) were transferred to two 20 μm Microcell chambers and sperm motility was assessed by CASA.

HIV-1 = test: Anti-HIV-1 activity, p24 antigen assay in infected PBMC (Example 1); type: cell-based; details: for IC50: read-out: IC50, HIV-1 replication (p24 antigen)
Method: Subsequently, cells were cultured in 96-well microtiter plates (100 μl/well; 2×10^6/ml, triplicate wells) in the presence and absence of various concentrations (0.00 μM to 100 μM) of drugs for 7 days. Aliquots of culture supernatants were removed from the wells on the 7th day after infection for p24 antigen enzyme immunoassay as an indication of viral replication. Erice et al. Antimicrob. Agents and Chemother. […] Agents and Chemother. […] Percent inhibition of virus replication was calculated by comparing the p24 antigen values from the test drug-treated infected cells with p24 antigen values from untreated infected cells. […] Cell viability was quantified by a colorimetric […] assay. F. M. Uckun et al., Antimicrob. Agents and Chemother.

[4] = test system: binding of human sperm to human zona; test: Human sperm-zona binding assay (Example 5); type: cell-based
Method: The human sperm-zona recognition and binding assay appears to predict the in vitro and in vivo fertilization outcome. […] Due to the variable number of sperm binding to human eggs, the sperm-zona binding ratio was used to assess sperm-zona binding capacity.
Following coincubation, the number of tightly bound green (SYBR 14) and blue (SYTO 17) sperm were assessed by laser scanning confocal microscopy. Frozen human eggs (n=46) were thawed and rinsed three times in BWW-0.3% BSA, and in BWW-3.5% BSA, before addition of sperm suspension. […] The first aliquot was incubated with 2.5 μM SYBR 14 (Molecular Probes) and the second aliquot was incubated with 5 μM SYTO 17. Following 30 minutes of incubation, sperm motility was assessed by CASA. Motile sperm with intensely stained green or blue nuclei were washed twice in BWW and one million motile sperm labeled with SYBR 14 (green) and SYTO 17 (blue) were added to dish containing human zona (n=2) under mineral oil and coincubated for 4 hours. Following extensive washing of eggs to dislodge any loosely adherent sperm, the eggs were mounted on glass slides and examined under a BioRad MRC-1024 Laser Scanning Confocal Microscope as described above. Using fluorescence imaging, the fluorescence emission of SYBR-14 and SYTO-17 localized on the sperm head was simultaneously recorded using 598/40 nm, and 680 DF32 emission/filter respectively. Confocal images of Z-sections were obtained using a Nikon […] (NA 1.4) objective and Kalman collection filter. Digitized images were processed with the Adobe Photoshop software and final images were printed using a Fujix Pictography 3000 color printer. The number of tightly bound green and blue-colored sperm nuclei adherent to each human egg were counted from the Z-sections of fluorescence images of each egg on all focal planes and expressed as a binding ratio.

[5] = test system: cervicovaginal epithelium of female CD-1 mice; test: Cervicovaginal tissue inflammation after repetitive intravaginal application in mice (Example 8); details: for neutrophils in cervicovaginal squamous epithelia (immunofluorescence): 5% in cream base intravaginally; for mice with inflammatory response or disruption of the squamous epithelia: 5% in cream base intravaginally daily for 5 or 20 days, 10 mice
Method: In particular, 30 female CD-1 mice, 6 months old were randomly divided into two groups (A and B). Each group was further divided into three subgroups of 5 mice. […] After 5 and 20 days respectively, mice were killed by cervical dislocation, and tissues from the genitourinary tract were fixed in 10% buffered formalin. To determine the degree of inflammation and membrane integrity of squamous epithelia, conventional paraffin-embedded sections (6-pm) were prepared and stained with hematoxylin and eosin and observed under 300× magnification with a Leica microscope interfaced with an image analysis system (Scion), and images were transferred to Adobe Photoshop software for printout. The four stages of the estrous cycle were determined histologically.
Following antigen retrieval by heating (93° C. for 10 min in 10 mM sodium citrate buffer, pH 6.0), sections were preincubated with 10% normal goat serum in PBS, treated with optimal dilution (5 μg/ml) of the mAb followed by FITC-conjugated goat anti-rat IgG (Pierce Chemical Co., Rockford, IL). Each incubation step lasted 60 min with 5 min PBS washes between each step. The slides were counterstained with PI (1 μg/ml), washed in deionized water, mounted in anti-fade (BioRad), and visualized by laser confocal microscopy as described above. Negative controls were carried out by replacing the primary mAb with PBS or using rat IgG2 as control mAb

[6] = MTT, mean ± SD of two experiments
[7] = Homo sapiens, Epithelial cell, MTT, mean ± SD of two experiments

Compound | IC50 [1, 6] [µM] | IC50 [2, 6] [µM] | sperm motility after direct addition to semen diluted in PBS [3] | exposure time to complete sperm immobilization (human sperm) [min] | time required for 50% motility loss of progressively motile sperm (human sperm) [min] | mean sperm-zona binding ratio ([4]; sperm pretreated with 25 μM) | mean sperm-zona binding ratio ([4]; sperm pretreated with 50 μM) | mean sperm-zona binding ratio ([4]; sperm pretreated with 100 μM) | neutrophils in cervicovaginal squamous epithelia (immunofluorescence) [5] | mice with inflammatory response or disruption of the squamous epithelia [5] | further results
5-Bromo-6-methoxy-5,6-dihydro-3′-azidothymidine 5′-[Phenyl methoxyalaninyl phosphate] [WHI-04] | > 1000 | > 1000 |  |  |  |  |  |  |  |  | 
5-Bromo-6-methoxy-5,6-dihydro-3′-azidothymidine-5′-[(p-Fluorophenyl methoxyalaninyl phosphate] [WHI-06] | 939 ± 157 | 304 ± 79 |  |  |  |  |  |  |  |  | 
5-bromo-6-methoxy-5,6-dihydro-3 ′-azidothymidine-5 ′-(p-methoxyphenyl) methoxyalaninyl phosphate [WHI-05] | 388 ± 38 | > 1000 | complete loss of motility | 60 | 17 | 0.18 | 0.07 | 0.10 |  |  | IC50 (HIV-1; human peripheral blood mononuclear cells, 7 days): 0.05 µM
CCCCCCCCCc1ccc(OCCOCCOCCOCCOCCOCCOCCOCCOCCO)cc1 [Compound N-9, nonoxynol-9, reference compound] |  |  |  |  |  |  |  |  | intense positive staining | 9 of 10 | IC50 [1, 7]: 16 ± 5 µM; IC50 [2, 7]: 22 ± 8 µM; IC50 (HIV-1; Human immunodeficiency virus 1, PBMC, 168 h, human peripheral blood mononuclear cells, 7 days): 2.19 µM
COC(=O)C(C)NP(=O)(OCC1OC(N2C(=O)NC(=O)C(C)(Br)C2OC)CC1N=[N+]=[N-])Oc1ccc(Br)cc1 (stereo not drawn) [WHI-07, 5-Bromo-6-methoxy-5,6-dihydro-3′-azidothymidine-5′-(p-Bromophenyl Methoxyalaninyl Phosphate)] |  |  | complete loss of motility | 30 | 6 | 0.088 | 0.039 | 0.009 | absence of neutrophils | none of the 10 mice | IC50 ([1]; Homo sapiens, Epithelial cell): 312 ± 38 µM; IC50 ([2]; Homo sapiens, Epithelial cell): > 1000 µM; IC50 (HIV-1; Human immunodeficiency virus 1, PBMC, 168 h): 0.005 µM; anti-HIV potency relative to N-9 (HIV-1; ratio of IC50 values): 439 fold
